Values of other authors as cited in patent US20220362140A1, “Novel Dental Care and Cleansing Composition” (GROUP PHARMACEUTICALS, priority 2020, published 2022).

Settings: much higher concentration

Compound: O=BO[O-].[Na+] [Sodium perboarate]
- Concentration that is toxic: 25%
